Article PMC4860631, “Pharmacokinetics and tolerability of NSC23925b, a novel P-glycoprotein inhibitor: preclinical study in mice and rats” (Scientific Reports, 2016)

Legend:
[1] = biological target: T1, CYP2B6 (Homo sapiens, UniProt P20813); test: HLM-LC-MS CYP450 inhibition assay, CYP2B6; type: in vitro ADME
T1 construct: from tissue; host or cells: human liver microsomes
T1 sequence (P20813 1-491): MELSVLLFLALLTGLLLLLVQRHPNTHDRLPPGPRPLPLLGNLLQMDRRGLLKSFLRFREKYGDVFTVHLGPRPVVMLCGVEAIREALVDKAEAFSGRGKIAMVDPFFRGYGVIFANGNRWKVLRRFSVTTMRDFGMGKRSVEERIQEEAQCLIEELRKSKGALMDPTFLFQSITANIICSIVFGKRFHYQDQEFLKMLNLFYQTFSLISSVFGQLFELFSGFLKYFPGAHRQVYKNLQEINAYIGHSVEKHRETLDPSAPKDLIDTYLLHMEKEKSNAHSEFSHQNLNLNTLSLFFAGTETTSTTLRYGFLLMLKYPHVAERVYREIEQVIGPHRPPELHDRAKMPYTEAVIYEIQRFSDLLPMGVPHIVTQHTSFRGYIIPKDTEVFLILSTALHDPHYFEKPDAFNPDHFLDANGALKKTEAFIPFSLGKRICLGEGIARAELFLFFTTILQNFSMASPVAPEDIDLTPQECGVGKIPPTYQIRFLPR
Method: Compounds were tested in triplicate.

[2] = in vivo; settings: mouse, in vivo; for AUC(0-inf): AUC0-inf; for AUC(0-t): AUC0-t; for k el: Kel; for half-life: t1/2
Method: After dosing, blood samples were collected at different time points for each group. […] Three animals were used for each time point. Approximately 800 μL of blood was collected via orbital vein (a source of collecting sufficient volume of venous blood) from each anesthetized mouse by isoflurane, and 200 μL of blood was collected from the cannula implanted in the jugular vein. The catheter was implanted when the blood sample was collected at the first time point. Next, the blood was transferred to a prepared tube containing sodium heparin anticoagulant and mixed briefly by gentle inversion three to four times. The target and actual time of blood sampling were recorded relative to the time of dosing. Samples were placed on wet ice immediately after collection. Within 1 hour after collection, plasma was separated by centrifugation at 4,000 rpm for 10 minutes at 4 °C. The plasma was protected from light and stored at −80 °C until analyzed by liquid chromatography-mass spectrometry/mass spectrometry (LC-MS/MS) for quantification.
Using the data from the standards, calibration curves were generated for each analytical batch. Aliquots of 10.0 μL of samples, calibraton curve samples, and QC samples were supplemented with 100 μL of precipitant (a mixture of acetone and acetonitrile (30:70)). After vortexing for 3 min and centrifuging at 12,000 rpm for 3 min, 75.00 μL of the supernatant was transferred into a 96-well microplate with an equal volume of water. The 10 μL mixture solution was injected for LC-MS/MS analysis.
Data collection was performed using Analyst version 1.4 from Applied Biosystems. […] The data were also analyzed using Prism 5.0 software. Statistical significance was determined using independent two-tailed Student t-tests and one-way ANOVA for independent data. Differences of P < 0.05 were regarded as significant for all statistical analyses.

Q: Which CYP inhibitor class ([1]; bupropion) does the source give for `COc1ccc(-c2cc(C(O)C3CCCCN3)c3ccccc3n2)cc1` (stereo not shown) [NSC23925b, (2-(4-methoxyphenyl)-4-quinolinyl)(2-piperidinyl)methanol] here?
A: moderate (1–10 μM)

Q: What about the IC50 ([1]; substrate bupropion 70 μM, hydroxylation, read-out: Compound IC50) of the same compound?
A: 8.59 µM

Q: And the “volumes of distribution at a steady state” value ([2]; male, BALB/c (mice), Sprague-Dawley (rats))?
A: > 9 L/kg

Q: What about the “time of highest concentrations in plasma after I.P. injection” value ([2]; male, BALB/c (mice), Sprague-Dawley (rats), ip, 5 mg/kg) of the same compound?
A: 1 to 2 h

Q: And the “time of highest concentrations in plasma after I.V. injection” value ([2]; male, BALB/c (mice), Sprague-Dawley (rats), iv, 2.5 mg/kg)?
A: 5 min

Q: What about the “time point of peak plasma NSC23925b concentrations for both I.V. and I.P.” value ([2]; male, BALB/c) of the same compound?
A: 15 min

Q: What about the AUMC0-inf ([2]; male, BALB/c, ip, 5 mg/kg) of the same compound?
A: 50744 ± 36083 h·h·ng·mL^−1

Q: What about the AUMC0-t ([2]; male, BALB/c, ip, 5 mg/kg) of the same compound?
A: 25329 ± 4810 h·h·ng·mL^−1

Q: What about the Cmax ([2]; male, BALB/c, ip, 5 mg/kg) of the same compound?
A: 298 ± 56.1 ng/mL

Q: And the F ([2]; male, BALB/c, ip, 5 mg/kg)?
A: 117.1 ± 24.06%

Q: What about the AUC(0-inf) ([2]; male, BALB/c, ip, 5 mg/kg) of the same compound?
A: 3980 ± 819 ng·h/mL

Q: What about the AUC(0-t) ([2]; male, BALB/c, ip, 5 mg/kg) of the same compound?
A: 3360 ± 197 ng·h/mL

Q: And the k el ([2]; male, BALB/c, ip, 5 mg/kg)?
A: 2.56e-05 s⁻¹

Q: And the half-life ([2]; male, BALB/c, ip, 5 mg/kg)?
A: 8.69 ± 4.18 h

Q: What about the Tmax ([2]; male, BALB/c, ip, 5 mg/kg, tmax) of the same compound?
A: ~1.5 h

Q: What about the AUMC0-inf ([2]; male, BALB/c, iv, 2.5 mg/kg) of the same compound?
A: 11945 ± 2141 h·h·ng·mL^−1

Q: What about the AUMC0-t ([2]; male, BALB/c, iv, 2.5 mg/kg) of the same compound?
A: 9893 ± 1299 h·h·ng·mL^−1

Q: And the MRTIV ([2]; male, BALB/c, iv, 2.5 mg/kg)?
A: 6.99 ± 0.836 h

Q: And the AUC(0-inf) ([2]; male, BALB/c, iv, 2.5 mg/kg)?
A: 1700 ± 130 ng·h/mL

Q: What about the AUC(0-t) ([2]; male, BALB/c, iv, 2.5 mg/kg) of the same compound?
A: 1640 ± 114 ng·h/mL

Q: And the clearance ([2]; male, BALB/c, iv, 2.5 mg/kg, CL)?
A: 24.6 ± 1.96 mL/min/kg

Q: And the k el ([2]; male, BALB/c, iv, 2.5 mg/kg)?
A: 3.89e-05 s⁻¹

Q: And the Vd ([2]; male, BALB/c, iv, 2.5 mg/kg, VdSS)?
A: 10.3 ± 0.808 L/kg

Q: And the half-life ([2]; male, BALB/c, iv, 2.5 mg/kg)?
A: 5.01 ± 0.661 h

Q: And the “treatment-related clinical signs during the pharmacokinetic study” value [2]?
A: no treatment-related clinical signs were observed
